Consider 14 molecules from ChEMBL document CHEMBL1122575, “Dependence of beta-lactamase stability on substructures within beta-lactam antibiotics” (J Med Chem, 1984).

In brackets after ≈: the same amount, converted by molar mass.

Series [1] is described as follows: Relative hydrolysis rate (RHR) was evaluated against K1 enzyme. Format: ADME.
Series [2] in a line: Compound was evaluated for the relative Vmax against RTEM enzyme. Format: ADME.
Series [3] can be described thus: Relative hydrolysis rate (RHR) was evaluated against RTEM enzyme. Format: ADME.
The test system of series [4] is Escherichia coli. As to the kind of experiment: Compound was evaluated for the relative Vmax against Escherichia coli with strain 609 (beta-Lactamase-positive (LAC+). It counts as ADME, organism-based. The following applies: in vivo.
Series [5] concerns Escherichia coli. As to the kind of experiment: Compound was evaluated for the antibacterial activity against Escherichia coli (RTEM+organism) at 10e4/10e6 colony forming units; 0.8/3.1. Format: functional.
For series [6], the system named is Escherichia coli. As to the kind of experiment: Compound was evaluated for the antibacterial activity against Escherichia coli (RTEM-organism) at 10e4/10e6 cfu; 1.6/1.6. Format: functional.
For series [7], the system named is Escherichia coli. As to the kind of experiment: Compound was evaluated for the antibacterial activity against Escherichia coli (RTEM+organism) at 10e4/10e6 cfu; 0.8/3.1. Format: functional.
Series [8] concerns Klebsiella aerogenes. As to the kind of experiment: Compound was evaluated for the antibacterial activity against Klebsiella aerogenes with strain K1- at 10e4/10e6 cfu; 0.2/0.2. It counts as functional.
For series [9], the system named is Escherichia coli. As to the kind of experiment: Compound was evaluated for the antibacterial activity against Escherichia coli (RTEM+organism) at 10e4/10e6 cfu; 0.4/1.6. It counts as functional.
Series [10] deals with Klebsiella aerogenes. As to the kind of experiment: Compound was evaluated for the antibacterial activity against Klebsiella aerogenes with strain K1+ at 10e4/10e6 cfu; 100/>100. Format: functional.
Series [11] concerns Escherichia coli. As to the kind of experiment: Compound was evaluated for the antibacterial activity against Escherichia coli (RTEM-organism) at 10e4/10e6 cfu; 0.1/0.2. Format: functional.
The test system of series [12] is Escherichia coli. As to the kind of experiment: Compound was evaluated for the antibacterial activity against Escherichia coli (RTEM+organism) at 10e4/10e6 colony forming units; 25/100. Format: functional.
Series [13] relates to Escherichia coli. As to the kind of experiment: cCompound was evaluated for the antibacterial activity against Escherichia coli (RTEM+ organism); 0.4/0.2. Format: functional.
The test system of series [14] is Klebsiella aerogenes. As to the kind of experiment: Compound was evaluated for the antibacterial activity against Klebsiella aerogenes with strain K1; 100/>100. Format: functional.
Series [15] relates to Escherichia coli. As to the kind of experiment: Compound was evaluated for the antibacterial activity against Escherichia coli (RTEM- organism); 0.1/0.4. It counts as functional.
Series [16] concerns Klebsiella aerogenes. As to the kind of experiment: Compound was evaluated for the antibacterial activity against Klebsiella aerogenes with strain K1-; 0.8/0.8. It counts as functional.
Series [17] has as its system Escherichia coli. As to the kind of experiment: Compound was evaluated for the antibacterial activity against Escherichia coli (RTEM+organism). 10e4/10e6 colony forming units are observed; 3.1/25. It counts as functional.
Series [18] relates to Escherichia coli. As to the kind of experiment: Relative hydrolysis rate (RHR) was evaluated against Escherichia coli with the strain RTEM. Format: ADME, organism-based.
For the next series, the system named is Providencia rettgeri. As to the kind of experiment: Compound was evaluated for the antibacterial activity against Providencia rettgeri with the strain beta-Lactamase-negative (LAC-). Format: functional.
For series [19], the system named is Escherichia coli. As to the kind of experiment: cEscherichia coli with strain NIHJ (beta-Lactamase-negative (LAC-)). It counts as functional.
Series [20] deals with Staphylococcus aureus. As to the kind of experiment: Compound was evaluated for the antibacterial activity against Staphylococcus aureus with the strain beta-Lactamase-positive (LAC+)/beta-Lactamase-negative (LAC-); 2/1. It counts as functional.
Series [21] in a line: Relative Vmax was reported. Format: ADME.
The test system of series [22] is Escherichia coli. As to the kind of experiment: Compound was evaluated for the antibacterial activity against Escherichia coli (RTEM+organism). 10E6 colony forming units are observed. Format: functional.
The subject of series [23] is Escherichia coli. As to the kind of experiment: Compound was evaluated for the antibacterial activity against Escherichia coli (RTEM-organism) at 10e4/10e6 colony forming units; <0.05/0.1. Format: functional.
Series [24] has as its system Klebsiella aerogenes. As to the kind of experiment: Compound was evaluated for the antibacterial activity against Klebsiella aerogenes with strain K1- at 10e4/10e6 colony forming units; 0.05/0.1. It counts as functional.
Series [25] concerns Escherichia coli. As to the kind of experiment: Compound was evaluated for the antibacterial activity against Escherichia coli (RTEM+organism) at 10e4/10e6 colony forming units; 0.1/0.1. It counts as functional.
Series [26] deals with Klebsiella aerogenes. As to the kind of experiment: Compound was evaluated for the antibacterial activity against Klebsiella aerogenes with strain K1+ at 10e4/10e6 colony forming units; 12.5/>100. Format: functional.
For series [27], the system named is Klebsiella aerogenes. As to the kind of experiment: Compound was evaluated for the antibacterial activity against Klebsiella aerogenes with strain K1- at 10e4/10e6 cfu; 0.1/0.4. It counts as functional.
In series [28] the test system is Klebsiella aerogenes. As to the kind of experiment: Compound was evaluated for the antibacterial activity against Klebsiella aerogenes with strain K1+ at 10e4/10e6 cfu; 0.2/0.8. It counts as functional.
In series [29] the test system is Escherichia coli. As to the kind of experiment: Compound was evaluated for the antibacterial activity against Escherichia coli (RTEM+organism) at 10e4/10e6 cfu; 0.1/0.4. Format: functional.
Series [30] concerns Escherichia coli. As to the kind of experiment: Compound was evaluated for the antibacterial activity against Escherichia coli (RTEM-organism) at 10e4/10e6 cfu; 0.2/0.4. Format: functional.
The test system of series [31] is Klebsiella aerogenes. As to the kind of experiment: Compound was evaluated for the antibacterial activity against Klebsiella aerogenes with strain K1+ at 10e4/10e6 cfu; 6.3/>100. Format: functional.
The test system of series [32] is Escherichia coli. As to the kind of experiment: Compound was evaluated for the antibacterial activity against Escherichia coli (RTEM-organism) at 10e4/10e6 cfu; 0.2/0.2. It counts as functional.
In series [33] the test system is Klebsiella aerogenes. As to the kind of experiment: Compound was evaluated for the antibacterial activity against Klebsiella aerogenes with strain K1- at 10e4/10e6 cfu; <0.05/0.1. Format: functional.
Series [34] concerns Escherichia coli. As to the kind of experiment: Compound was evaluated for the antibacterial activity against Escherichia coli (RTEM+organism) at 10e4/10e6 cfu; 0.1/0.2. Format: functional.
For series [35], the system named is Staphylococcus aureus. As to the kind of experiment: Compound was evaluated for the antibacterial activity against Staphylococcus aureus with the strain 209P. It counts as functional.
Series [36] deals with Staphylococcus aureus. As to the kind of experiment: Compound was evaluated for the antibacterial activity against Staphylococcus aureus with the strains beta-Lactamase-positive (LAC+)/ beta-Lactamase-negative (LAC-); 64/0.03. It counts as functional.
The subject of series [37] is Staphylococcus aureus. As to the kind of experiment: Relative hydrolysis rate (RHR) was evaluated against Staphylococcus aureus with the strain FS108. Format: ADME, organism-based.

With `O=C(Cc1cccs1)N[C@@H]1C(=O)N2C(C(=O)[O-])=C(C[n+]3ccccc3)CS[C@H]12` [CEPHALORIDINE], the RHR in [1] and in [3] was 100 throughout. For the same molecule, the RVmax (in series [2]; in the series with Escherichia coli [4]) was 100 each time.
Molecule `CC(C)(O/N=C(\C(=O)N[C@H]1CN(S(=O)(=O)[O-])C1=O)c1csc(N)n1)C(=O)[O-].[K+].[K+]` displayed an RHR in series [3] of 2.3. The molecule further showed an MIC in the series with Escherichia coli [5] of 0.8 µg/mL.
For `CC(C)(O/N=C(/C(=O)N[C@H]1CN(C(=O)NS(C)(=O)=O)C1=O)c1csc(N)n1)C(=O)[O-].[K+]`, the MIC in the series on Escherichia coli [6] turned out to be 1.6 µg/mL; against Escherichia coli [7], 0.8 µg/mL.
On to `CO/N=C(/C(=O)N[C@@H]1C(=O)N(S(=O)(=O)[O-])[C@H]1C)c1csc(N)n1.[K+]`, for which the RHR in series [1] turned out to be 20; in series [3] it was 1. The MIC against Klebsiella aerogenes [8] was found to be 0.2 µg/mL; against Escherichia coli [9] it was 0.4 µg/mL; in the series on Klebsiella aerogenes [10], 100 µg/mL; in the series with Escherichia coli [11], 0.1 µg/mL.
`CC(C)O/N=C(\C(=O)N[C@H]1CN(S(=O)(=O)[O-])C1=O)c1csc(N)n1.[K+]` yielded an MIC against Escherichia coli [12] of 25 µg/mL. The same molecule displayed an RHR in series [3] of 7.
Consider `C#C[C@@H]1[C@H](NC(=O)/C(=N/OC)c2csc(N)n2)C(=O)N1S(=O)(=O)[O-].[K+]`, for which the MIC was 0.4 µg/mL with Escherichia coli [13], above 100 µg/mL in the series on Klebsiella aerogenes [14], 0.1 µg/mL in the series with Escherichia coli [15] and 0.8 µg/mL with Klebsiella aerogenes [16].
As for `CO/N=C(\C(=O)N[C@H]1CN(S(=O)(=O)[O-])C1=O)c1csc(N)n1.[K+]`, the RHR in series [3] came to 12; in the series on Escherichia coli [18], 106. Further, the MIC is 3.1 µg/mL with Escherichia coli [17] and below 0.05 µg/mL against Providencia rettgeri.
For `Cn1nnnc1SCC1=C(C(=O)O)N2C(=O)C(NC(=O)C(C(=O)O)c3ccc(O)cc3)C2SC1` (stereo not drawn), in the series with Escherichia coli [19], it took 3.13 µg/mL (≈ 6.18 µM) to inhibit growth (MIC). In [3], this molecule displayed an RHR of 0.96.
For `COc1cccc(OC)c1C(=O)N[C@@H]1C(=O)N2C1SC(C)(C)C2C(=O)O` (stereo partly drawn), the minimum inhibitory concentration (MIC) in the series on Staphylococcus aureus [20] was determined as 2 µg/mL (≈ 5.26 µM). Also, the RVmax in series [21] was 0.04.
Molecule `CO/N=C(\C(=O)N[C@@H]1C(=O)N2C(C(=O)O)=C(COC(C)=O)C[S@@+]([O-])C12)c1csc(N)n1` (stereo partly drawn) gave an RHR in [3] of 160. Also, in the series on Escherichia coli [22], the lowest concentration to inhibit growth (MIC) was 1.6 µg/mL (≈ 3.39 µM).
As for `CO/N=C(/C(=O)N[C@@H]1C(=O)N(S(=O)(=O)[O-])[C@@H]1C)c1csc(N)n1.[K+]`, the MIC against Escherichia coli [23] was below 0.05 µg/mL; against Klebsiella aerogenes [24] it was 0.05 µg/mL; in the series with Escherichia coli [25], 0.1 µg/mL; with Klebsiella aerogenes [26] it was 12.5 µg/mL. In addition, the figures for the RHR in [1] and in [3] were 6.4 and 0.3, respectively.
Consider `CC[C@@H]1[C@H](NC(=O)/C(=N/OC)c2csc(N)n2)C(=O)N1S(=O)(=O)[O-].[K+]`, for which the MIC worked out at 0.1 µg/mL against Klebsiella aerogenes [27], 0.2 µg/mL with Klebsiella aerogenes [28], 0.1 µg/mL against Escherichia coli [29] and 0.2 µg/mL with Escherichia coli [30].
`C=C[C@@H]1[C@H](NC(=O)/C(=N/OC)c2csc(N)n2)C(=O)N1S(=O)(=O)[O-].[K+]`: the minimum inhibitory concentration (MIC) against Klebsiella aerogenes [31] was 6.3 µg/mL; in the series with Escherichia coli [32] it was 0.2 µg/mL; against Klebsiella aerogenes [33], below 0.05 µg/mL; with Escherichia coli [34] it was 0.1 µg/mL.
In the case of `CC1(C)S[C@@H]2[C@H](NC(=O)Cc3ccccc3)C(=O)N2[C@H]1C(=O)O` [PENICILLIN G], the minimal inhibitory concentration (MIC) against Staphylococcus aureus [35] amounted to 0.065 µg/mL (≈ 0.194 µM); against Staphylococcus aureus [36], 64 µg/mL (≈ 191 µM). For the same molecule, the RVmax in series [21] is on record as 1. For the same molecule, the RHR in the series on Staphylococcus aureus [37] is 100.
